Test results published in patent US4895842A, “Phenylalanine derivative and proteinase inhibitor” (Shosuke Okamoto, priority 1985, dated 1990).
Structures can show the parent of a compound that is named as a salt. Where two headings read alike, the source gives them in different places.

Columns and labels:
[1] = target: T1, human plasmin (Homo sapiens, UniProt P00747); test: biochemical
Protocol: An inhibitor sample is dissolved in a 0.05M Tris-hydrochloric acid buffer solution (pH=7.4) to make the total volume of 400 μl. […] Then, 50 μl of a 0.2 casein unit/ml human plasmin is added and the mixture is incubated at a temperature of 37° C. for 4 minutes. Thereafter, the reaction is stopped by adding 50 μl of 50% acetic acid.
Thus, the concentration I50 (μmol) of the inhibitor sample, at which the absorbance is one half (i.e., 1/2) of that obtained in the absence of the inhibitor, is determined.

[2] = target: T1, human plasmin; test: Antiplasmin activity: inhibition of fibrin decomposition; type: biochemical
Protocol: (i) Determination of inhibition activity for fibrin decomposition
An inhibitor sample is dissolved in a 0.18M borate-physiological salt buffer solution (pH=7.4) to make the total volume to 600 μl. To this buffer solution, 200 μl of a 0.2% bovine fibrinogen, 100 μl of a 0.3 casein unit/ml human plasmin solution, and 100 μl of a 50 unit/ml bovine thrombin solution, all dissolved in the above-mentioned buffer, are added at a temperature of 37° C. in a constant temperature bath. Then, the dissolution time of the fibrin mass formed above is determined.

[3] = target: T2, bovine thrombin (Bos taurus, UniProt P00735); test: Antithrombin activity: inhibition of S-2238 decomposition; type: biochemical; conditions: S-2238 substrate, read-out: Thrombin S-2238 (I50)
Protocol: (ii) Determination of inhibition activity for S-2238 decomposition
An inhibitor sample is dissolved in a 0.05M Tris-hydrochloric acid buffer solution (pH=8.3) to make a total volume of 400 μl. To this solution, 50 μl of a 0.2 mM S-2238 solution is added and the mixture is incubated at a temperature of 37° C. for 5 minutes in a constant temperature bath. Then, 50 μl of a 0.2 unit/ml bovine thrombin solution is added thereto and the absorbance, at 405 nm, of the p-nitroaniline formed per minute is determined at a temperature of 37° C. by using the so-called initial velocity method. Thus, the concentration I50 (μmol) of the inhibitor sample at which the absorbance is one half (i.e., 1/2) of that obtained in the absence of the inhibitor sample, is determined.

[4] = target: T2, bovine thrombin; test: Antithrombin activity: inhibition of fibrin formation from fibrinogen; type: biochemical
Protocol: (i) Determination of inhibition activity against fibrin formation
An inhibitor sample is dissolved in a 0.18M borate-physiological salt buffer solution (pH=7.4) to make the total volume to 500 μl. To this solution, 400 μl of a 0.2% bovine fibrinogen solution and 100 μl of a 4 unit/ml bovine thrombin solution are added at a temperature of 37° C. in a constant temperature bath. Thus, a coagulation time is determined. The inhibitor concentration I50 (μmol), at which the coagulation time obtained in the absence of the inhibitor is extended twice, is determined.

[5] = target: human plasma kallikrein (Homo sapiens, UniProt P03952); test: Anti-plasma kallikrein activity: inhibition of S-2302 decomposition; type: biochemical; conditions: S-2302 substrate, read-out: Plasma Kallikrein S-2302 (I50)
Protocol: Determination of inhibition activity for S-2302 decomposition
An inhibitor sample is dissolved in a 0.05M Tris-hydrochloric acid buffer solution (pH=7.8) to make the total volume to 400 μl. To this solution, 50 μl of a 2 mM S-2302 solution is added and the mixture is incubated at a temperature of 37° C. for 5 minutes in a constant temperature bath. Then, 50 μl of a 0.12 unit/ml human plasma kallikrein is added and the mixture is incubated at a temperature of 37° C. for 5 minutes. Thereafter, 50 μl of 50% acetic acid is added to terminate the reaction. The absorbance of the p-nitroaniline formed in the reaction mixture is measured at 405 nm. Thus, the concentration I50 (μmol) of the inhibitor sample, at which the absorbance is one half (i.e., 1/2) of that obtained in the absence of the inhibitor sample, is determined.

[6] = target: human urokinase (Homo sapiens, UniProt P00749); test: biochemical; conditions: S-2444 substrate, read-out: Urokinase S-2444 (I50)
Protocol: Determination of inhibition activity for S-2444 decomposition
An inhibitor sample is dissolved in a 0.05M Tris-hydrochloric acid buffer solution (pH=8.8) to make the total volume to 400 μl. To this solution, 50 μl of a 1 mM S-2444 solution is added and the mixture is incubated at a temperature of 37° C. for 5 minutes in a constant temperature bath. Then, 50 μl of a 500 unit/ml human urokinase is added and the mixture is incubated at a temperature of 37° C. for 5 minutes. Thereafter, 50 μl of 50% acetic acid is added to terminate the reaction. The absorbance of the p-nitroaniline formed in the reaction mixture is measured at 405 nm. Thus, the concentration I50 (μmol) of the inhibitor sample, at which the absorbance is one half (i.e., 1/2) of that obtained in the absence of the inhibitor sample, is determined.

[7] = target: T3, bovine trypsin (Bos taurus, UniProt P00760); test: Antitrypsin activity: inhibition of S-2238 decomposition; type: biochemical; conditions: Table 2; S-2238 substrate, pH 8.1, 37° C.; read-out: Trypsin S-2238 (I50)
T3 sequence (P00760 24-246): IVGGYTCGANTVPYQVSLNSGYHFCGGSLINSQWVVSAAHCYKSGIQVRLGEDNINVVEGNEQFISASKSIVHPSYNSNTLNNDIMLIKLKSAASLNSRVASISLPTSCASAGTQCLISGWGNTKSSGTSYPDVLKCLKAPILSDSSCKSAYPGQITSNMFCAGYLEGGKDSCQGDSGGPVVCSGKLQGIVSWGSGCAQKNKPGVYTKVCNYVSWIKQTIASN

[8] = Table 2, concentration at which fibrin dissolution time is extended twice, pH 7.4, 37° C., read-out: Plasmin Fibrin (I50)

human plasma kallikrein, sequence (P03952 391-638 limits assumed): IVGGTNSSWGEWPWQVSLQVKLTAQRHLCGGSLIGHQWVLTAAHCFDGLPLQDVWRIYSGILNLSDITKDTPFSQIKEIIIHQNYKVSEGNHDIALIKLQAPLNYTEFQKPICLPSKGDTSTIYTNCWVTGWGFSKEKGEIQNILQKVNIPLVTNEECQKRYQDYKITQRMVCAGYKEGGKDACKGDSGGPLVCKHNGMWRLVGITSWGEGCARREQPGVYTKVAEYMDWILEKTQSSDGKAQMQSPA
human plasma kallikrein, sequence (P03952 20-390 partner limits assumed): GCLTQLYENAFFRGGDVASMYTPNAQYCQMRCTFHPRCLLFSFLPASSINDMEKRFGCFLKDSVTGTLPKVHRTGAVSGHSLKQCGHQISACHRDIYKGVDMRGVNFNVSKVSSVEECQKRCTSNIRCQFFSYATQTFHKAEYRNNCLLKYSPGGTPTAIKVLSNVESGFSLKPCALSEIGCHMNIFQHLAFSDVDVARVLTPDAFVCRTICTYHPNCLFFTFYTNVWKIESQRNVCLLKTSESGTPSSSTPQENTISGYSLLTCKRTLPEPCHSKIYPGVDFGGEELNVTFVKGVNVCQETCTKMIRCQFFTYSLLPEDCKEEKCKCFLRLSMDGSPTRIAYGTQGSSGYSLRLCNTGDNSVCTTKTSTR
T1 sequence (P00747 581-810 limits assumed): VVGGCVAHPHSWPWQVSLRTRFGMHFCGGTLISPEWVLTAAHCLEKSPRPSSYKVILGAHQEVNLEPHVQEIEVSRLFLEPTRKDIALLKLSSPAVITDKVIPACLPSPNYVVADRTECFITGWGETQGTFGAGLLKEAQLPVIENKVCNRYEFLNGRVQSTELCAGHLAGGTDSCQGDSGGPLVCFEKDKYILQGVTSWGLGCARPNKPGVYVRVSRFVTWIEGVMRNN
T1 sequence (P00747 97-580 partner limits assumed): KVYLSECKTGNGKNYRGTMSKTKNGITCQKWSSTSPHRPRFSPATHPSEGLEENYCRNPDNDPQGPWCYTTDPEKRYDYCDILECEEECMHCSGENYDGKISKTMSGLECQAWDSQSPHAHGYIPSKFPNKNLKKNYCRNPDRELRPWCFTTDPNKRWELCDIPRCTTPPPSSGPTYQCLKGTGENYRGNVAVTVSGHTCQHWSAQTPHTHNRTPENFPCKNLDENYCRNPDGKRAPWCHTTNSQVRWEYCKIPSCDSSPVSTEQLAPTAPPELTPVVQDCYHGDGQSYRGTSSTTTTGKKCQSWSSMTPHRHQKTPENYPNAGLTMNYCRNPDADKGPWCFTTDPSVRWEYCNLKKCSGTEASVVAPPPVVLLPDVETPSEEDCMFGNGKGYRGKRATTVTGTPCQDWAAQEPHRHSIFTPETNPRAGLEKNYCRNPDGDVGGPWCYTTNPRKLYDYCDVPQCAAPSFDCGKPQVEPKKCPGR

Row | SMILES | IC50 ([3]; Table 2, pH 8.3, 37° C.) | IC50 [4] | IC50 ([5]; Table 2, pH 7.8, 37° C.) | IC50 ([6]; Table 2, pH 8.8, 37° C.) | IC50 ([1]; read-out: Plasmin S-2251 (I50)) | IC50 [2, 8] | also measured
1 | NC[C@H]1CC[C@H](C(=O)NC(Cc2ccc([N+](=O)[O-])cc2)C(=O)Nc2ccc(C(=O)c3ccccc3)cc2)CC1 (mixture of isomers) [Compound No. 31, N-(trans-4-aminomethylcyclohexylcarbonyl)-4-nitro-D,L-phenylalanine 4-benzoylanilide hydrochloride] | > 100 µM | > 100 µM | 6000 nM | 3.3 µM |  |  | IC50 [1]: 14000 nM; IC50 [2]: 3300 nM
2 | CC(=O)c1ccc(NC(=O)[C@H](Cc2ccc(OCc3ccc(Cl)cc3)cc2)NC(=O)[C@H]2CC[C@H](CN)CC2)cc1 [Compound No. 5, N-(trans-4-aminomethylcyclohexylcarbonyl)-4-(4-chlorobenzyloxy)-L-phenylalanine 4-acetylanilide] |  |  | 460 nM | 25 µM | 900 nM | 390 nM | IC50 [7]: 0.84 µM
3 | CC(=O)c1ccc(NC(=O)[C@H](Cc2ccc(OCc3ccc(F)cc3)cc2)NC(=O)[C@H]2CC[C@H](CN)CC2)cc1 [Compound No. 12] |  |  | 840 nM | 11 µM | 790 nM | 410 nM | 
4 | NC[C@H]1CC[C@H](C(=O)N[C@@H](Cc2ccc(OCc3ccccc3)cc2)C(=O)Nc2cccnc2)CC1 [Compound No. 16, N-(trans-4-aminomethylcyclohexylcarbonyl)-4-benzyloxy-L-phenylalanine 3-pyridylamide dihydrochloride] | > 400 µM | > 500 µM |  |  |  |  | 
5 | NCc1ccc(C(=O)N[C@@H](Cc2ccc(OCc3ccccc3)cc2)C(=O)NC2CCCCC2)cc1 [Compound No. 114, N-(4-aminomethylbenzoyl)-4-benzyloxy-L-phenylalanine cyclohexylamide hydrochloride] |  |  | 40000 nM | > 100 µM | 3200 nM | 1400 nM | IC50 [7]: 9.5 µM
6 | CC(=O)NC(Cc1ccc(OCc2ccccc2)cc1)C(=O)N(C)C (stereo not drawn) [Table 3 Compound No. 5, reference compound] |  |  |  |  |  |  | IC50 ([1]; Table 4, comparative compounds of Table 3, S-2251 substrate, pH 7.4, 37° C., read-out: Plasmin S-2251 (I50)): > 200000 nM; IC50 ([2]; Table 4, comparative compounds of Table 3, fibrin dissolution time extended twice, read-out: Plasmin Fibrin (I50)): > 200000 nM; IC50 ([3]; Table 4, comparative compounds of Table 3, pH 8.3): > 200 µM; IC50 ([4]; Table 4, comparative compounds of Table 3, coagulation time extended twice, read-out: Thrombin Fibrinogen (I50)): > 200 µM; IC50 ([5]; Table 4, comparative compounds of Table 3, pH 7.8): > 200000 nM; IC50 ([6]; Table 4, comparative compounds of Table 3, pH 8.8): > 200 µM
7 | CC(=O)c1ccc(NC(=O)[C@H](Cc2ccc(OC(C)C)cc2)NC(=O)[C@H]2CC[C@H](CN)CC2)cc1 [compound 14] | > 400 µM | > 500 µM | 2100 nM | 80 µM | 168000 nM | 4400 nM | 
8 | CC(=O)c1ccc(NC(=O)[C@H](Cc2ccc(OCc3ccc(Br)cc3)cc2)NC(=O)[C@H]2CC[C@H](CN)CC2)cc1 [compound 17] |  |  | 560 nM | 23 µM | 1500 nM | 280 nM | 
9 | NC[C@H]1CC[C@H](C(=O)N[C@@H](Cc2ccc(OCc3ccccc3)cc2)C(=O)Nc2ccc(C(=O)c3ccccc3)cc2)CC1 [compound 19] |  |  | 1200 nM | 19 µM | 1300 nM | 280 nM | 
10 | CC(=O)c1ccc(NC(=O)[C@H](Cc2ccc(OCc3c(Cl)cccc3Cl)cc2)NC(=O)[C@H]2CC[C@H](CN)CC2)cc1 [compound 20] | > 50 µM | > 25 µM | 160 nM | 120 µM | 1400 nM | 310 nM | 
